Reference: patent publication US10405547B2, “Substituted cyclic amides as herbicides” (FMC Corporation, priority 2015, dated 2019)

Tests used:
Assay type in all cases: in vivo
[1] = test system: sedge, umbrella (small-flower umbrella sedge, Cyperus difformis); assay: Test B flooded paddy test, umbrella sedge; settings: applied to paddy water, visual rating after 13 to 15 days, scale 0 (no effect) to 100 (complete control)
Outline: (§1)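 Pots were flooded to 3 cm above the soil surface at treatment, compound applied directly to the paddy water, and that depth held throughout. Plants were kept in a greenhouse for 13 to 15 days, then visually rated against untreated controls.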

[2] = test system: ducksalad (Heteranthera limosa); assay: Test B flooded paddy test, ducksalad; settings: applied to paddy water, visual rating after 13 to 15 days, scale 0 (no effect) to 100 (complete control)
Outline: as §1

[3] = test system: barnyardgrass (Echinochloa crus-galli); assay: Test A preemergence, barnyardgrass; settings: 0 to 100 scale (0 no effect, 100 complete control)
Outline: (§2)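 Visual injury scores (0 no effect to 100 complete control) taken about 10 days after treatment, relative to untreated plants. Treatments were directed soil spray at planting for preemergence, or foliar application to one- to two-leaf plants (2-10 cm) for postemergence, with surfactant-containing formulations in loam–sand pots.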

[4] = test system: blackgrass (Alopecurus myosuroides); assay: Test A postemergence, blackgrass; settings: visual injury, 0 to 100 scale (0 no effect, 100 complete control), approximately 10 days
Outline: as §2

kochia (Kochia scoparia) [5] = assay: Test A preemergence, kochia; settings: 0 to 100 scale (0 no effect, 100 complete control)
Outline: as §2

corn (Zea mays) = assay: Test A postemergence, corn; settings: visual injury, 0 to 100 scale (0 no effect, 100 complete control), approximately 10 days
Outline: as §2

rice (Oryza sativa) = assay: Test B flooded paddy test, rice; settings: applied to paddy water, visual rating after 13 to 15 days, scale 0 (no effect) to 100 (complete control)
Outline: as §1

[6] = test system: barnyardgrass (Echinochloa crus-galli); assay: Test A postemergence, barnyardgrass; settings: visual injury, 0 to 100 scale (0 no effect, 100 complete control), approximately 10 days
Outline: as §2

[7] = test system: ryegrass, Italian (Lolium multiflorum); assay: Test A postemergence, Italian ryegrass; settings: visual injury, 0 to 100 scale (0 no effect, 100 complete control), approximately 10 days
Outline: as §2

[8] = test system: foxtail, giant (Setaria faberii); assay: Test A postemergence, giant foxtail; settings: visual injury, 0 to 100 scale (0 no effect, 100 complete control), approximately 10 days
Outline: as §2

[9] = test system: ragweed (common ragweed, Ambrosia elatior); assay: Test A postemergence, ragweed; settings: visual injury, 0 to 100 scale (0 no effect, 100 complete control), approximately 10 days
Outline: as §2

[10] = test system: ryegrass, Italian (Lolium multiflorum); assay: Test A preemergence, Italian ryegrass; settings: 0 to 100 scale (0 no effect, 100 complete control)
Outline: as §2

[11] = test system: barnyardgrass (Echinochloa crus-galli); assay: Test B flooded paddy test, barnyardgrass; settings: applied to paddy water, visual rating after 13 to 15 days, scale 0 (no effect) to 100 (complete control)
Outline: as §1

[12] = test system: wheat (Triticum aestivum); assay: Test A postemergence, wheat; settings: visual injury, 0 to 100 scale (0 no effect, 100 complete control), approximately 10 days
Outline: as §2

[13] = test system: foxtail, giant (Setaria faberii); assay: Test A preemergence, giant foxtail; settings: 0 to 100 scale (0 no effect, 100 complete control)
Outline: as §2

kochia (Kochia scoparia) [14] = assay: Test A postemergence, kochia; settings: visual injury, 0 to 100 scale (0 no effect, 100 complete control), approximately 10 days
Outline: as §2

[15] = test system: pigweed (Amaranthus retroflexus); assay: Test A preemergence, pigweed; settings: 0 to 100 scale (0 no effect, 100 complete control)
Outline: as §2

[16] = test system: ragweed (common ragweed, Ambrosia elatior); assay: Test A preemergence, ragweed; settings: 0 to 100 scale (0 no effect, 100 complete control)
Outline: as §2

[17] = test system: pigweed (Amaranthus retroflexus); assay: Test A postemergence, pigweed; settings: visual injury, 0 to 100 scale (0 no effect, 100 complete control), approximately 10 days
Outline: as §2

[18] = test system: galium (catchweed bedstraw, Galium aparine); assay: Test A postemergence, galium; settings: visual injury, 0 to 100 scale (0 no effect, 100 complete control), approximately 10 days
Outline: as §2

| Compound | Plant response rating, Barnyardgrass ([3]; 125 g ai/ha) | Plant response rating, Barnyardgrass ([3]; 500 g ai/ha) | Plant response rating, Blackgrass ([4]; 125 g ai/ha) | Plant response rating, Blackgrass ([4]; 500 g ai/ha) | Plant response rating, Kochia (kochia (Kochia scoparia) [5]; 125 g ai/ha) | Plant response rating, Kochia (kochia (Kochia scoparia) [5]; 500 g ai/ha) | Plant response rating, Corn (corn (Zea mays); 125 g ai/ha) | Plant response rating, Corn (corn (Zea mays); 500 g ai/ha) | Plant response rating, Barnyardgrass ([6]; 125 g ai/ha) | Plant response rating, Barnyardgrass ([6]; 500 g ai/ha) | Plant response rating, Ryegrass, Italian ([7]; 125 g ai/ha) | Plant response rating, Ryegrass, Italian ([7]; 500 g ai/ha) | Plant response rating, Foxtail, Giant ([8]; 125 g ai/ha) | Plant response rating, Foxtail, Giant ([8]; 500 g ai/ha) | Plant response rating, Ragweed ([9]; 125 g ai/ha) | Plant response rating, Ragweed ([9]; 500 g ai/ha) | Plant response rating, Ryegrass, Italian ([10]; 125 g ai/ha) | Plant response rating, Ryegrass, Italian ([10]; 500 g ai/ha) | Plant response rating, Wheat ([12]; 125 g ai/ha) | Plant response rating, Wheat ([12]; 500 g ai/ha) | further results |
| --- | --- | --- | --- | --- | --- | --- | --- | --- | --- | --- | --- | --- | --- | --- | --- | --- | --- | --- | --- | --- | --- |
| CC1(COc2cccc(C3CNC(=O)C3C(=O)Nc3ccccc3F)c2)COC1 (stereo not drawn) [Compound 14] | 10 | 80 | 0 | 0 | 0 | 0 | 0 | 0 | 10 | 60 | 0 | 0 | 10 | 70 | 0 | 0 | 0 | 0 | 0 | 0 | Plant response rating, Sedge, Umbrella (Flood) ([1]; 250 g ai/ha): 20; Plant response rating, Ducksalad (Flood) ([2]; 250 g ai/ha): 70; Plant response rating, Rice (Flood) (rice (Oryza sativa); 250 g ai/ha): 0; Plant response rating, Barnyardgrass (Flood) ([11]; 250 g ai/ha): 0; Plant response rating, Foxtail, Giant ([13]; 125 g ai/ha): 30; Plant response rating, Foxtail, Giant ([13]; 500 g ai/ha): 90; Plant response rating, Kochia (kochia (Kochia scoparia) [14]; 125 g ai/ha): 0; Plant response rating, Kochia (kochia (Kochia scoparia) [14]; 500 g ai/ha): 0; Plant response rating, Pigweed ([15]; 125 g ai/ha): 0; Plant response rating, Pigweed ([15]; 500 g ai/ha): 0; Plant response rating, Ragweed ([16]; 125 g ai/ha): 0; Plant response rating, Ragweed ([16]; 500 g ai/ha): 0; Plant response rating, Pigweed ([17]; 125 g ai/ha): 0; Plant response rating, Pigweed ([17]; 500 g ai/ha): 0; Plant response rating, Galium ([18]; 125 g ai/ha): 0; Plant response rating, Galium ([18]; 500 g ai/ha): 0 |
| CC1(COc2cccc(C3CNC(=O)C3C(=O)Nc3ccccc3C(F)(F)F)c2)COC1 (stereo not drawn) [Compound 15] | 0 | 60 | 0 | 0 | 0 | 0 | 0 | 0 | 0 | 0 | 0 | 0 | 10 | 20 | 0 | 30 | 0 | 0 | 0 | 0 | Plant response rating, Sedge, Umbrella (Flood) ([1]; 250 g ai/ha): 0; Plant response rating, Ducksalad (Flood) ([2]; 250 g ai/ha): 50; Plant response rating, Rice (Flood) (rice (Oryza sativa); 250 g ai/ha): 0; Plant response rating, Barnyardgrass (Flood) ([11]; 250 g ai/ha): 0; Plant response rating, Foxtail, Giant ([13]; 125 g ai/ha): 10; Plant response rating, Foxtail, Giant ([13]; 500 g ai/ha): 40; Plant response rating, Kochia (kochia (Kochia scoparia) [14]; 125 g ai/ha): 0; Plant response rating, Kochia (kochia (Kochia scoparia) [14]; 500 g ai/ha): 0; Plant response rating, Pigweed ([15]; 125 g ai/ha): 0; Plant response rating, Pigweed ([15]; 500 g ai/ha): 0; Plant response rating, Ragweed ([16]; 125 g ai/ha): 0; Plant response rating, Ragweed ([16]; 500 g ai/ha): 0; Plant response rating, Pigweed ([17]; 125 g ai/ha): 0; Plant response rating, Pigweed ([17]; 500 g ai/ha): 0; Plant response rating, Galium ([18]; 125 g ai/ha): 0; Plant response rating, Galium ([18]; 500 g ai/ha): 0 |
| CC1(COc2cccc(C3CNC(=O)C3C(=O)Nc3ccccc3Cl)c2)COC1 (stereo not drawn) [Compound 16] | 0 | 60 | 0 | 0 | 0 | 0 | 0 | 0 | 0 | 50 | 0 | 0 | 0 | 20 | 0 | 0 | 0 | 0 | 0 | 0 | Plant response rating, Sedge, Umbrella (Flood) ([1]; 250 g ai/ha): 30; Plant response rating, Ducksalad (Flood) ([2]; 250 g ai/ha): 30; Plant response rating, Rice (Flood) (rice (Oryza sativa); 250 g ai/ha): 0; Plant response rating, Barnyardgrass (Flood) ([11]; 250 g ai/ha): 0; Plant response rating, Foxtail, Giant ([13]; 125 g ai/ha): 10; Plant response rating, Foxtail, Giant ([13]; 500 g ai/ha): 70; Plant response rating, Kochia (kochia (Kochia scoparia) [14]; 125 g ai/ha): 0; Plant response rating, Kochia (kochia (Kochia scoparia) [14]; 500 g ai/ha): 0; Plant response rating, Pigweed ([15]; 125 g ai/ha): 0; Plant response rating, Pigweed ([15]; 500 g ai/ha): 0; Plant response rating, Ragweed ([16]; 125 g ai/ha): 0; Plant response rating, Ragweed ([16]; 500 g ai/ha): 0; Plant response rating, Pigweed ([17]; 125 g ai/ha): 0; Plant response rating, Pigweed ([17]; 500 g ai/ha): 0; Plant response rating, Galium ([18]; 125 g ai/ha): 0; Plant response rating, Galium ([18]; 500 g ai/ha): 0 |
| O=C1NCC(c2cccc(Cn3ccc(C(F)(F)F)n3)c2)C1C(=O)Nc1ccc(F)c(F)c1F (stereo not drawn) [Compound 22] | 0 | 30 | 0 | 0 | 0 | 0 | 0 | 0 | 40 | 60 | 0 | 0 | 20 | 60 | 0 | 0 | 0 | 0 | 0 | 0 | Plant response rating, Sedge, Umbrella (Flood) ([1]; 500 g ai/ha): 0; Plant response rating, Ducksalad (Flood) ([2]; 500 g ai/ha): 0; Plant response rating, Rice (Flood) (rice (Oryza sativa); 500 g ai/ha): 0; Plant response rating, Barnyardgrass (Flood) ([11]; 500 g ai/ha): 30; Plant response rating, Foxtail, Giant ([13]; 125 g ai/ha): 40; Plant response rating, Foxtail, Giant ([13]; 500 g ai/ha): 80; Plant response rating, Kochia (kochia (Kochia scoparia) [14]; 125 g ai/ha): 0; Plant response rating, Kochia (kochia (Kochia scoparia) [14]; 500 g ai/ha): 0; Plant response rating, Pigweed ([15]; 125 g ai/ha): 0; Plant response rating, Pigweed ([15]; 500 g ai/ha): 0; Plant response rating, Ragweed ([16]; 125 g ai/ha): 0; Plant response rating, Ragweed ([16]; 500 g ai/ha): 0; Plant response rating, Pigweed ([17]; 125 g ai/ha): 0; Plant response rating, Pigweed ([17]; 500 g ai/ha): 0; Plant response rating, Galium ([18]; 125 g ai/ha): 0; Plant response rating, Galium ([18]; 500 g ai/ha): 0 |
| O=C1NCC(c2cccc(Cn3ccc(C(F)(F)F)n3)c2)C1C(=O)Nc1ccccc1F (stereo not drawn) [Compound 23] | 0 | 20 | 0 | 0 | 0 | 20 | 0 | 0 | 0 | 30 | 0 | 0 | 0 | 20 | 0 | 0 | 0 | 0 | 0 | 0 | Plant response rating, Sedge, Umbrella (Flood) ([1]; 500 g ai/ha): 0; Plant response rating, Ducksalad (Flood) ([2]; 500 g ai/ha): 0; Plant response rating, Rice (Flood) (rice (Oryza sativa); 500 g ai/ha): 0; Plant response rating, Barnyardgrass (Flood) ([11]; 500 g ai/ha): 0; Plant response rating, Foxtail, Giant ([13]; 125 g ai/ha): 20; Plant response rating, Foxtail, Giant ([13]; 500 g ai/ha): 50; Plant response rating, Kochia (kochia (Kochia scoparia) [14]; 125 g ai/ha): 0; Plant response rating, Kochia (kochia (Kochia scoparia) [14]; 500 g ai/ha): 0; Plant response rating, Pigweed ([15]; 125 g ai/ha): 0; Plant response rating, Pigweed ([15]; 500 g ai/ha): 0; Plant response rating, Ragweed ([16]; 125 g ai/ha): 0; Plant response rating, Ragweed ([16]; 500 g ai/ha): 0; Plant response rating, Pigweed ([17]; 125 g ai/ha): 0; Plant response rating, Pigweed ([17]; 500 g ai/ha): 0; Plant response rating, Galium ([18]; 125 g ai/ha): 0; Plant response rating, Galium ([18]; 500 g ai/ha): 0 |
